From patent US20220213060A1, “Crystal Form of Quinazolinone Compound and Preparation Method Therefor” (Luoxin Healthcare Science and Technology Development …, priority 2019, published 2022)

Columns and labels:
[1] = Beagle dog absorption test (pharmacokinetics); assay type: in vivo, Beagle dogs; conditions: male and female Beagle dogs, oral, 0.3 mg/kg, single
Method: Beagle dogs were given the crystal form A of the compound represented by formula (I) by single or multiple oral administration and single intravenous injection respectively, with 6 dogs in each group, half male and half female. The single oral doses were 0.3, land 3 mg/kg respectively; the multiple doses were 1 mg/kg, once a day for 7 consecutive days; the single intravenous dose was 0.3 mg/kg. According to the drug plasma concentration-time curve, the pharmacokinetic parameters were calculated, the results are shown in Table 15. The vehicle for drug preparation in group 1 was 5% HP-beta-CD, 5% solutol, pH=8 aqueous solution, the vehicles for groups 2, 3, 4 were 0.5% MC, 0.2% Tween80 aqueous solution.

[2] = Hygroscopicity by dynamic vapor sorption (DVS); assay type: physicochemical; conditions: 25° C. and 80% RH
Method: 1.4 Dynamic Vapor Sorption (DVS) Method of the Present Disclosure
Instrument model: SMS DVS Advantage dynamic vapor sorption instrument
Detection conditions: 10-20 mg of sample was placed in a DVS sample tray for testing.
Detailed DVS parameters were as follows:
Equilibrium: dm/dt=0.01%/min: (shortest: 10 min, longest: 180 min)
Drying: drying at 0% RH for 120 min
RH (%) test gradient: 10%
RH (%) test gradient range: 0%-90%-0%
Hygroscopicity evaluation is classified as follows:
20 mg of the crystal form A of the compound represented by formula (I) was placed in the DVS sample tray for testing.

[3] = test system: HR+/HER2+ human breast cancer BT-474 (PIK3CA amplified); experiment: In vivo pharmacodynamic study, BT-474 nude mouse subcutaneous xenograft tumor model; parameters: species or system BALB/c nude mice
Method: The phenotype of human BT-474 breast cancer cells is HR+/HER2+, and it has PIK3CA amplification. This experiment evaluated the efficacy of the crystal form A of the compound represented by formula (I) in a human breast cancer xenograft tumor model, using BYL-719 as a reference.
Cell culture: Human breast cancer BT474 cells were cultured in vitro in a single layer, the culture condition was Hybri-Care medium with 10% fetal bovine serum and the cells were incubated in 5% CO2 at 37° C. Digestion and passage treatment with trypsin-EDTA was carried out twice a week. When the cell saturation was 80%-90% and the number reached the requirement, the cells were collected, counted and inoculated.
Animals: BALB/c nude mice, female, 6-8 weeks old, weighing 18-20 g. A total of 85 animals were required, and provided by Shanghai Bikai experimental animal Co., Ltd.
Tumor inoculation: Estrogen tablets (0.36 mg/tablet) were subcutaneously inoculated on the left back of each mouse, three days later, 0.2 mL (10×10^6 cells) of BT474 cells (with matrigel in a volume ratio of 1:1) were subcutaneously inoculated on the right back of each mouse, group administration was started when the average tumor volume reached 150 mm^3−200 mm^3.
Tumor-bearing mice in each administration group had good tolerance to the tested compounds.

PI3Kδ = biological target: T1, PI3Kδ (Homo sapiens, UniProt O00329); experiment: In vitro enzymatic activity test (ADP-Glo lipid kinase), PI3Kδ; assay type: biochemical; conditions: Table 17, in vitro screening
T1 construct: purchased Millipore 14-604-K
Method: (§1) The lipid kinase reaction was carried out in a suitable substrate and under ATP conditions, then the activity of the kinase was detected by ADP-Glo™ kit in two steps. Step 1: the kinase reaction was terminated, in which the residual ATP was completely removed and only ADP was retained; step 2: kinase detection reagent was added to convert ADP to ATP, accompanied by fluorescein/luciferase reaction. Finally, the fluorescence value output was converted into kinase activity.
(§2) Experimental Materials and Equipment:
(§3) 2) Kit: ADP-Glo™ lipid kinase and PIP2:3PS kit (Promega #V1792)
(§4) The reagent kit contains: 1 mM PIP2:3PS, 10× lipid dilution buffer, 1 M magnesium chloride, 10 mM ATP, 10 mM ADP, ADP-Glo reagent, detection buffer and detection substrate.
(§5) 3) Reaction plate: OptiPlate-384, white and transparent (PerkinElmer #6007299)
(§6) 1) 10× reaction buffer: 500 mM HEPES, pH 7.5, 500 mM NaCl, […]; BSA: 10% stock solution, self-made
(§7) 2) Final test system conditions: 1× reaction system: 50 mM of HEPES, 50 mM of NaCl, 3 mM of MgCl2, 0.01% BSA (freshly prepared on the day of experiment), 1% DMSO (v/v)+/−compound
(§8) 3) Reaction system: 3 μL of mixture of enzyme and substrate (1:1)+2 μL of ATP/MgCl2 mixture+5 μL of ADP-Glo reagent+10 μL of detection reagent.
(§9) The specific experimental operations were as follows: […]
(§10) (16) Fluorescence values were measured on the Envision instrument.

MCF7 cell line = experiment: In vitro cell activity test: ELISA of Akt phosphorylation in MCF7 cells; assay type: cell-based; conditions: Homo sapiens; inhibition of Akt phosphorylation, insulin-stimulated MCF7 cells
Source text: ELISA method was used to measure the inhibition level of the compounds to be tested on the phosphorylation of Akt, which is the downstream protein of PI3K in signal pathway in MCF7 cell line to reflect the cell activity of the compounds.
Cell culture medium: complete cell culture medium (RPMI 1640+10% serum+1% L-glutamine+1% double antibody)
Serum-free medium (without serum, RPMI 1640+1% L-glutamine+1% double antibody)
Specific operation steps were as follows:
(1) MCF7 cells (ATCC® HTB-22™) were inoculated into a 96-well plate with 100 μL (2.5 10^4 cells per well) of complete cell culture medium, and incubated at 37° C. and 5% CO2 for 24 hours.
(2) The complete cell culture medium was replaced with 100 μL serum-free medium, and incubated overnight in starvation
(3) The compound (the initial concentration of the compound was 1 mM, which was subjected to a three-fold dilution in 10 concentrations. Then, each concentration of the compound was diluted 100-fold with serum-free medium), and 25 μL of the diluted compound was added to the well plate containing cells.
(4) The cells were incubated at 37° C. and 5% CO2 for 2 h
(5) 10 μg/mL insulin (Sigma #I9278-5 mL) was used to stimulate the cells in the well plate, incubated for 30 min, and then centrifuged at 1000 rpm for 5 min at room temperature.
(6) 250 μL 1× balanced salt solution (Invitrogen, #14065-056, 4° C., containing 1 mM/L Na3VO4) was added to each well to wash the cells once
(7) 100 μL of lysis buffer (tris(hydroxymethyl)aminomethane hydrochloride, Invitrogen, #15567-1000 ml) was added to each well and shaken at 4° C. for 60 min, and then centrifuged at 4000 rpm for 10 min at 4° C.
(8) The subsequent steps were performed according to the ELISA kit (TGR BioSciences #EKT002) instructions.

PI3Kα = biological target: T2, PI3Kα (Homo sapiens, UniProt P42336); experiment: In vitro enzymatic activity test (ADP-Glo lipid kinase), PI3Kα wild type; assay type: biochemical; conditions: Table 17, in vitro screening; read-out: PI3Kα IC50
T2 construct: purchased Millipore 14-602-K
Method: as §1, §2, §3, §4, §5, §6, §7, §8, §9, §10

PI3Kβ = biological target: T3, PI3Kβ (Homo sapiens, UniProt P42338); experiment: In vitro enzymatic activity test (ADP-Glo lipid kinase), PI3Kβ; assay type: biochemical; conditions: Table 17, in vitro screening
T3 construct: purchased Promega V1751
Method: as §1, §2, §3, §4, §5, §6, §7, §8, §9, §10

PI3Kγ = biological target: T4, PI3Kγ (Homo sapiens, UniProt P48736); experiment: In vitro enzymatic activity test (ADP-Glo lipid kinase), PI3Kγ; assay type: biochemical; conditions: Table 17, in vitro screening
T4 construct: purchased Millipore 14-558-K
Method: as §1, §2, §3, §4, §5, §6, §7, §8, §9, §10

[4] = 40 mg/kg, oral once a day for 20 days

T3 sequence (P42338 whole entry): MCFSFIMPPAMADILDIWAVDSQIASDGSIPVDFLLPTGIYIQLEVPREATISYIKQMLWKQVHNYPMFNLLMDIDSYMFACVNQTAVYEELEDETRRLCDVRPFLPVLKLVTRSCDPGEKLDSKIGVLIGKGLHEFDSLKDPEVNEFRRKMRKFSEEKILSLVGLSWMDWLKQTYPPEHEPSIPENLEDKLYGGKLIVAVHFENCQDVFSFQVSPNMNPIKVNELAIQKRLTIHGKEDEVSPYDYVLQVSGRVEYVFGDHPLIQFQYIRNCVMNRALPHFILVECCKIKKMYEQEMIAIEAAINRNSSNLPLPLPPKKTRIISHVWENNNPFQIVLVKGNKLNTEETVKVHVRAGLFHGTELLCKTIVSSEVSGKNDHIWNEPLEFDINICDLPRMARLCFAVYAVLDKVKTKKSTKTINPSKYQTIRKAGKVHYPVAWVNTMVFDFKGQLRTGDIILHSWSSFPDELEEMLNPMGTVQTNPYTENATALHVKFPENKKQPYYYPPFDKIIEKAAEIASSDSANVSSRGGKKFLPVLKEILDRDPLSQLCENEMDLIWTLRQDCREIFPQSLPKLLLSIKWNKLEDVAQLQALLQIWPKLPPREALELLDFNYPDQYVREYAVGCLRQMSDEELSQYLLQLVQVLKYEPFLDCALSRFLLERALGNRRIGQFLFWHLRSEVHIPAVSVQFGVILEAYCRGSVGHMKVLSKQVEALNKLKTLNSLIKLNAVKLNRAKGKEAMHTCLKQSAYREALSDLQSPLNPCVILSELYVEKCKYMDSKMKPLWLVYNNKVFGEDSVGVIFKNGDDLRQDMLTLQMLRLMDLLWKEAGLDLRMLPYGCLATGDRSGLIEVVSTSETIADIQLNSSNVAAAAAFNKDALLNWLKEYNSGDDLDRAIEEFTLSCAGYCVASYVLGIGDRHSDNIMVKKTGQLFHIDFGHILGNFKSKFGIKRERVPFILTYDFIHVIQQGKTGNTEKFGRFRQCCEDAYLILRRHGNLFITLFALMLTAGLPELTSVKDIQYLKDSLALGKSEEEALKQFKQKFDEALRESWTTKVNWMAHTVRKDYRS
T3 sequence (P27986 whole entry partner): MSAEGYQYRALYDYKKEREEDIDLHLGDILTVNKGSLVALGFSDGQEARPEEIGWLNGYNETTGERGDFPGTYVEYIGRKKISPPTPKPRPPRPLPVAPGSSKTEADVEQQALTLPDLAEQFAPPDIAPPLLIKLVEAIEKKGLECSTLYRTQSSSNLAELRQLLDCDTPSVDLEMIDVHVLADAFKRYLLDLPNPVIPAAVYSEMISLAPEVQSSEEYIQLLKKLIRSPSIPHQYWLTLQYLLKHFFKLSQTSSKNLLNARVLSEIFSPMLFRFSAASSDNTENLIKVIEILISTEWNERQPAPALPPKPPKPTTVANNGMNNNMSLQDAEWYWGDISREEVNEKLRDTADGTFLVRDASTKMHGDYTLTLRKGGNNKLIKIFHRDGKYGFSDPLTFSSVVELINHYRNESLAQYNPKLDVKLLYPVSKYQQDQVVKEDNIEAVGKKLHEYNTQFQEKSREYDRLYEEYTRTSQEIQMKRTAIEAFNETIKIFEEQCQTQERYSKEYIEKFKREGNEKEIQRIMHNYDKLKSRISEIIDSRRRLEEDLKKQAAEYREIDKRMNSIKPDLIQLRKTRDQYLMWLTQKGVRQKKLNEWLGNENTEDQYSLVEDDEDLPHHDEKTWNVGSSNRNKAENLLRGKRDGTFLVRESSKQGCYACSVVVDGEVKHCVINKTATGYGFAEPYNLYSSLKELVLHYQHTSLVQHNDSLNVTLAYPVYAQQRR
T2 sequence (P42336 whole entry): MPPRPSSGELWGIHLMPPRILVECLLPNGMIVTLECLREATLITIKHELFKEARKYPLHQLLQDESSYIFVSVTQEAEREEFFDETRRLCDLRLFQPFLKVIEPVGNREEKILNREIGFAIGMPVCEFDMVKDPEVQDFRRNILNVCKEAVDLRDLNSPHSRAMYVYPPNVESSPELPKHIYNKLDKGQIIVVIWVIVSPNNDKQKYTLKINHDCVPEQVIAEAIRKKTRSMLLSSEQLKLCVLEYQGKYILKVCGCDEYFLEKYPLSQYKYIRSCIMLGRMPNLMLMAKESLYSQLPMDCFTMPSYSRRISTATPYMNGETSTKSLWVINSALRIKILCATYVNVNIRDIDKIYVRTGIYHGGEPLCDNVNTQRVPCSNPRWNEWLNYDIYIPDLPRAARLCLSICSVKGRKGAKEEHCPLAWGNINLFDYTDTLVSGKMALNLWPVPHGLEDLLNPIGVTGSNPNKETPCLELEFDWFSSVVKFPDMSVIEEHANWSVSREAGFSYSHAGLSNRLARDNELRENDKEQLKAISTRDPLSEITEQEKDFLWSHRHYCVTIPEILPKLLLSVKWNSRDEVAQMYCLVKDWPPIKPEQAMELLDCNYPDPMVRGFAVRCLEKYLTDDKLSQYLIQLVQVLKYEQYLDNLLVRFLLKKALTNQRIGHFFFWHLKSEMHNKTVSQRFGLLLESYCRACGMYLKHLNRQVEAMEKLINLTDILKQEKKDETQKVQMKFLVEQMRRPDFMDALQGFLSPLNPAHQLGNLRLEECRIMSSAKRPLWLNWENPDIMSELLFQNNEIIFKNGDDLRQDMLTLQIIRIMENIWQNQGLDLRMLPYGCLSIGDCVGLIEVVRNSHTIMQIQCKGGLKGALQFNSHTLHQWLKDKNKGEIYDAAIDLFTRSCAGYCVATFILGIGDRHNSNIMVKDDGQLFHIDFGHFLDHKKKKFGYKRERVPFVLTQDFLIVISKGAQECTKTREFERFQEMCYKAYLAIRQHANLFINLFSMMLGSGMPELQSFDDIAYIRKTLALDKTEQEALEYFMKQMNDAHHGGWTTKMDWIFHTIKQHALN
T2 sequence (P27986 whole entry partner): as the sequence (P27986 whole entry partner) above
T4 sequence (P48736 whole entry): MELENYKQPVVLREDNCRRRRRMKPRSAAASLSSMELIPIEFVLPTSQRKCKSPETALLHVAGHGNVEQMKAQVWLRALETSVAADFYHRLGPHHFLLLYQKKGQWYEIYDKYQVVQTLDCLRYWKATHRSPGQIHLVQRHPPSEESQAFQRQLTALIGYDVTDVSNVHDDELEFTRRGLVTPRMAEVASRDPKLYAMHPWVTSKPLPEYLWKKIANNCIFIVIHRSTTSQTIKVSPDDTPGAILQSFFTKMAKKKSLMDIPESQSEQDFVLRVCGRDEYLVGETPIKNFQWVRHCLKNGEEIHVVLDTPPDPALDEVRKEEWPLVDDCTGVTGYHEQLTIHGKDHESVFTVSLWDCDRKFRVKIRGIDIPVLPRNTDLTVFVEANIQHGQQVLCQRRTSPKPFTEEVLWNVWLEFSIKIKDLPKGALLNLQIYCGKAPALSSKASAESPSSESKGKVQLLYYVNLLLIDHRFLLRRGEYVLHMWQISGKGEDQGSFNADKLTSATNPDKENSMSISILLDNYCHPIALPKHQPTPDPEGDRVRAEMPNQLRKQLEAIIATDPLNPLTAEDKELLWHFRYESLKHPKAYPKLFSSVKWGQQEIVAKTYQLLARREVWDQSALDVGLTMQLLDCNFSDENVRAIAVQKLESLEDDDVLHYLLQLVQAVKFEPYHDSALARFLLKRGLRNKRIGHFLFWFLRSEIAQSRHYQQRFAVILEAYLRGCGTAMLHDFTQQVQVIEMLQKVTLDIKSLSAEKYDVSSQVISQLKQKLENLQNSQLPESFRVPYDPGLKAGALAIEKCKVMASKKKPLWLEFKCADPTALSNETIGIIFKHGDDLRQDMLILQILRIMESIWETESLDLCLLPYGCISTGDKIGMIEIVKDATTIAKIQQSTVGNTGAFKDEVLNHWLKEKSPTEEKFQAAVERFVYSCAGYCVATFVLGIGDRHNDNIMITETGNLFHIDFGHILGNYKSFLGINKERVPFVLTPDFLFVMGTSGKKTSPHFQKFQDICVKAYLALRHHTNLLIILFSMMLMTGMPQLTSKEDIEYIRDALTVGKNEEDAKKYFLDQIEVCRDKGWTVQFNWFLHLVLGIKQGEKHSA
T1 sequence (O00329 whole entry): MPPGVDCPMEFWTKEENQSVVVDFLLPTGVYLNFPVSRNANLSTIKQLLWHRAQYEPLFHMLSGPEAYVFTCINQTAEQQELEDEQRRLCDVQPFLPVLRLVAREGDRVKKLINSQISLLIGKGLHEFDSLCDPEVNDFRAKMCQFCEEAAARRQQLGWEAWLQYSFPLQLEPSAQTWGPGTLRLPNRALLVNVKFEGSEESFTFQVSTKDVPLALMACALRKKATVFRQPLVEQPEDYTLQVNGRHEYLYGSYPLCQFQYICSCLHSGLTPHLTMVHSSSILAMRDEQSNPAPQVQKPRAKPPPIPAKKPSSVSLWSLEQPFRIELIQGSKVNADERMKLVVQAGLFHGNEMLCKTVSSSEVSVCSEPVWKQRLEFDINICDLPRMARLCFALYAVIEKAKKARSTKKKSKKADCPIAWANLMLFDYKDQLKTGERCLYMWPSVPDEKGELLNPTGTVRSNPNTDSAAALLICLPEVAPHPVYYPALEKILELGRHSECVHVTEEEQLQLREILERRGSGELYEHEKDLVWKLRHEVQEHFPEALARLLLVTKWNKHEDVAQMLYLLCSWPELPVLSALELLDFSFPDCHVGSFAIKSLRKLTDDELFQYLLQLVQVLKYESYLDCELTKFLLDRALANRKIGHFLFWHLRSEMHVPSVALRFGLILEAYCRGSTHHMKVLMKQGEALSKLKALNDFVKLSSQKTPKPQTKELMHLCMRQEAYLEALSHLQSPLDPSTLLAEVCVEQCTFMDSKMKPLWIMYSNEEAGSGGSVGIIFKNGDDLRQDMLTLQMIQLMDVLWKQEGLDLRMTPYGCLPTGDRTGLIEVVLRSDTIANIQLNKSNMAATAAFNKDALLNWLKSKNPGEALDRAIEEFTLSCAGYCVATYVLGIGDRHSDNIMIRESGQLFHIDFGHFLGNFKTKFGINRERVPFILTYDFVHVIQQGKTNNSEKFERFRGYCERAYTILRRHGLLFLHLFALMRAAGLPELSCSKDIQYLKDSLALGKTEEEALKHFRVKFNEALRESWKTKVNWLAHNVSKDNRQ
T1 sequence (P27986 whole entry partner): as the sequence (P27986 whole entry partner) above

**Q.** For `CNC(=O)[C@H](C)Cn1cnc2ccc(-c3cnc(OC)c(NS(=O)(=O)c4ccc(F)cc4F)c3)cc2c1=O` [listing 1 of 2 here], which “Oral bioavailability (%)” value [1] is on record?
**A.** 71.2%

**Q.** Which Classification for hygroscopicity [2] does the source give for `CNC(=O)[C@H](C)Cn1cnc2ccc(-c3cnc(OC)c(NS(=O)(=O)c4ccc(F)cc4F)c3)cc2c1=O` [listing 2 of 2 here] here?
**A.** hygroscopic

**Q.** What about the “ΔW, hygroscopical weight gain” value [2] of the same molecule?
**A.** 2.332%

**Q.** Which “Anti-tumor effect (in words)” value ([3]; 40 mg/kg group) does the source give for `Cc1nc(NC(=O)N2CCC[C@H]2C(N)=O)sc1-c1ccnc(C(C)(C)C(F)(F)F)c1` [BYL-719, reference compound] here?
**A.** significant anti-tumor effects

**Q.** And the T/C % [3, 4]?
**A.** 29.39%

**Q.** And the TGI % [3, 4]?
**A.** 95.31%

**Q.** For `CNC(=O)[C@H](C)Cn1cnc2ccc(-c3cnc(OC)c(NS(=O)(=O)c4ccc(F)cc4F)c3)cc2c1=O` [Compound represented by formula (I)], which IC50 (PI3Kδ) is on record?
**A.** 25.3 nM

**Q.** What about the IC50 (MCF7 cell line) of the same molecule?
**A.** 35.3 nM

**Q.** And the IC50 (PI3Kα)?
**A.** 1.75 nM

**Q.** And the IC50 (PI3Kβ)?
**A.** 192 nM

**Q.** What about the IC50 (PI3Kγ) of the same molecule?
**A.** 19.8 nM

**Q.** With `COc1ncc(-c2ccc3ncn(CCN(C)C)c(=O)c3c2)cc1NS(=O)(=O)c1ccc(F)cc1` [R011 (A2)] as the molecule, how does the IC50 (MCF7 cell line) read?
**A.** 230 nM

**Q.** With `CCN(CC)CCn1cnc2ccc(-c3cnc(OC)c(NS(=O)(=O)c4ccc(F)cc4F)c3)cc2c1=O` [R012 (A10)] as the molecule, how does the IC50 (MCF7 cell line) read?
**A.** > 1000 nM
